Data set [1] in a line: AUC (0 to t) in C57BL/6 mouse at 40 mg/kg,IG measured upto 24 hrs by HPLC-MS/MS analysis. Format: ADME, organism-based. Also noted: dose 40 mg/kg, time < 24 hrs, route ig. As to conditions: in vivo, po.
Data set [2] can be described thus: MRT (0 to t) in C57BL/6 mouse at 40 mg/kg,IG measured upto 24 hrs by HPLC-MS/MS analysis. The format is ADME, organism-based. As to conditions: in vivo, po.
A short description of data set [3]: Brain concentration in C57BL/6 mouse at 40 mg/kg,IG measured after 0.25 hrs by HPLC analysis. As to conditions: po, read-out: Ct. The format is ADME, organism-based.
A short description of data set [4]: Brain concentration in C57BL/6 mouse at 40 mg/kg,IG measured after 24 hrs by HPLC analysis. Format: ADME, organism-based. To be noted: po, read-out: Ct.
Data set [5] in a line: Plasma concentration in C57BL/6 mouse at 40 mg/kg,IG measured after 0.25 hrs by HPLC analysis. The format is ADME, organism-based. To be noted: po.
A short description of data set [6]: Ratio of drug concentration in brain to plasma in C57BL/6 mouse at 40 mg/kg,IG measured after 6 hrs by HPLC analysis. The format is ADME, organism-based. To be noted: po.
Data set [7] is described as follows: Acute toxicity in C57BL/6 mouse assessed as animal survival at 1000 mg/kg,po measured after 24 hrs. Format: organism-based. As to conditions: in vivo.
Data set [8] has as its system Mus musculus. The data set is described as follows: Analgesic activity in C57BL/6 mouse model of formalin-induced allodynia assessed as reduction on foot licking pain response at 40 to 80 mg/kg,po measured after 10 mins. Format: functional, organism-based. As to conditions: dose 40-80 mg/kg.
For data set [9], the system named is Mus musculus. The data set is described as follows: Analgesic activity in C57BL/6 mouse model of formalin-induced allodynia assessed as reduction on foot licking pain response at 40 to 80 mg/kg,po measured at 15 to 60 mins. The format is functional, organism-based. To be noted: dose 40-80 mg/kg, time 15-60 min, DDE = dose-dependent effect.
The target of a further data set is T1, Anoctamin-2 (Homo sapiens, UniProt Q9NQ90).
T1 sequence (Q9NQ90 whole entry): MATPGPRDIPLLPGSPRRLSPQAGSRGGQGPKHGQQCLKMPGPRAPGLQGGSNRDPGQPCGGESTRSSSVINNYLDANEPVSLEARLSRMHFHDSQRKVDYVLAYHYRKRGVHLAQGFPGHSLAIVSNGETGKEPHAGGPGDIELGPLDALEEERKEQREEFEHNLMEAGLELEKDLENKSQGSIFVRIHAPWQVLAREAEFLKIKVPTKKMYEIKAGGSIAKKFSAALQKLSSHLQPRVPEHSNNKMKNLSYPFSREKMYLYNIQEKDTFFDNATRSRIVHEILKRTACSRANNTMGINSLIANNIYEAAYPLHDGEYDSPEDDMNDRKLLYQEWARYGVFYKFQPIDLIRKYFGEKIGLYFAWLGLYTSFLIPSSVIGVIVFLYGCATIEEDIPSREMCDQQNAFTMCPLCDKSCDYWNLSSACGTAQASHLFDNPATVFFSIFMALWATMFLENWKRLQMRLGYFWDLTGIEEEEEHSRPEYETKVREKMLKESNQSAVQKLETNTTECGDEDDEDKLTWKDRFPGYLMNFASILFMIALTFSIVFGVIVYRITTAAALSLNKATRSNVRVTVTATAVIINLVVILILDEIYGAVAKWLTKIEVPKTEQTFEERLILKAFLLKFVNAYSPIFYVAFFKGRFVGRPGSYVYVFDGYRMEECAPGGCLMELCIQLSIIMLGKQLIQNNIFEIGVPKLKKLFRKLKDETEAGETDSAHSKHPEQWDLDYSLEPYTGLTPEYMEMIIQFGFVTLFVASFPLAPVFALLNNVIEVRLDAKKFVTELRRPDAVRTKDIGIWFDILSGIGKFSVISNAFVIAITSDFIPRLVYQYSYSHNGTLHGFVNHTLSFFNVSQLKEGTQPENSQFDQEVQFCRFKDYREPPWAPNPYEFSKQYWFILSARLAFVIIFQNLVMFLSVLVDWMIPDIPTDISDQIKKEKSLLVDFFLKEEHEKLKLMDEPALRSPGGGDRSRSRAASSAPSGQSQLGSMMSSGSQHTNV
The data set is described as follows: Inhibition of human ANO2 expressed in HEK293 cells incubated for 5 mins by whole cell patch clamp electrophysiology. The format is cell-based. (In patch-clamp work, channel activity is measured electrically.)

Activity calls are given as the source filed them. No cut-off for these calls is given here.

Results on one molecule are retold here after ChEMBL document CHEMBL5120859, “Optimization of 4-arylthiophene-3-carboxylic acid derivatives as inhibitors of ANO1: Lead optimization studies toward their analgesic efficacy for inflammatory pain” (Eur J Med Chem, 2022).

In the case of `O=C(Nc1scc(-c2ccc(Cl)cc2)c1C(=O)O)c1cc(F)ccc1F`, in data set [1], the AUC(0-t) at 24 h worked out at 265 µg·h/mL. This molecule also had a mean residence time MRT last at 24 h in [2] of 5.4 h. Also, the concentration at 0.25 h was 1440 ng/g in data set [3] and 97.7 µg/mL in [5]. In addition, in data set [4], the concentration at 24 h came to 74.8 ng/g. The Ratio in data set [6] was determined as 1.4%. Besides, the Activity entry in data set [7] was “Non-Toxic”; in the data set with Mus musculus [9] it was “Dde”. Also, the result with Mus musculus [8] was Active. The IC50 against Anoctamin-2 was found to be 8.7 µM.

Usually AUC(0-t) stands for exposure summed from dosing to a finite time, without extrapolation to infinity. One may read the MRT last as the average time that molecules of a dose stay in the body. The IC50 is the concentration that inhibits the measured activity by half. Read a low IC50 as greater potency in that assay.
